Measurements from patent US6555563B1, “Heteroaryl substituted amidinyl and imidazolyl compounds and methods employing same for the treatment of inflammation” (Medinox, Inc., priority 2001, dated 2003).
pIC50: −log10 of the molar value.

Experiments:
[1] = biological target: T1, COX-1 (Ovis aries, UniProt P05979); test: Assay for COX-1 activity (Ovine), PGE2 formation by ELISA; assay type: biochemical; settings: for COX-1 10 nM (% inhibition) / inhibition at 0.01 µM: 10 nM compound; for COX-1 50 nM (% inhibition) / inhibition at 0.05 µM: 50 nM compound; for pIC50: first number of cell COX1/COX2; for inhibition at 0.01 µM: read-out: COX-1 10 nM (% inhibition); for inhibition at 0.05 µM: read-out: COX-1 50 nM (% inhibition)
T1 construct: host or cells: insect cells (membranes, CHAPS-solubilized)
T1 sequence (P05979 25-600): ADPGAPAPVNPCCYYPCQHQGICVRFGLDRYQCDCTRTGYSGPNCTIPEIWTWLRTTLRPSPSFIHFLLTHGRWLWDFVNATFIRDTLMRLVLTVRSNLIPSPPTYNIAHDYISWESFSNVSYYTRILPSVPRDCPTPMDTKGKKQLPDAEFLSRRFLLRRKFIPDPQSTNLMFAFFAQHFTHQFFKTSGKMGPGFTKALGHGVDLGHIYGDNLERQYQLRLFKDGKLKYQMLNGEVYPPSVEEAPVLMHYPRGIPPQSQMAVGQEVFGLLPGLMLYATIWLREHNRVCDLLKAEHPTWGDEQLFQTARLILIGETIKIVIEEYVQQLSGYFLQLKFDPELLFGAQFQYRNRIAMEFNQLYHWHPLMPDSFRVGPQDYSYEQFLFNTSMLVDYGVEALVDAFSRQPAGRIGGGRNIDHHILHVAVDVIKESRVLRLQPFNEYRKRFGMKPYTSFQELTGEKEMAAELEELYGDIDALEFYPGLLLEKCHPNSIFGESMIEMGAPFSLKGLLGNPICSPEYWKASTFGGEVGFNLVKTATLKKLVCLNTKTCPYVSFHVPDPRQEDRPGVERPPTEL
Procedure: (§1) COX activity was assayed as PGE2 formed/μg protein/time using ELISA to detect prostaglandin release. CHAPS-solubilized insect cell membranes containing the appropriate COX enzyme were incubated in a potassium phosphate buffer (50 mM, pH 8.0) containing Tris-HCl, EDTA, phenol, and heme with the addition of arachidonic acid (10 μM). Compounds were pre-incubated with the enzyme for 5-10 minutes prior to the addition of arachidonic acid. Any reaction between the arachidonic acid and the enzyme was stopped after two minutes at 37° C. The PGE2 formed was measured by standard ELISA technology (Cayman Chemical).

[2] = biological target: T2, COX-2 (Ovis aries, UniProt P79208); test: Assay for COX-2 activity (Ovine), PGE2 formation by ELISA; assay type: biochemical; settings: for COX-2 10 nM (% inhibition) / inhibition at 0.01 µM: 10 nM compound; for COX-2 50 nM (% inhibition) / inhibition at 0.05 µM: 50 nM compound; for Selectivity: IC50 COX1 / IC50 COX2; for pIC50: second number of cell COX1/COX2; for inhibition at 0.01 µM: read-out: COX-2 10 nM (% inhibition); for inhibition at 0.05 µM: read-out: COX-2 50 nM (% inhibition)
T2 construct: host or cells: insect cells (membranes, CHAPS-solubilized)
T2 sequence (P79208 17-603): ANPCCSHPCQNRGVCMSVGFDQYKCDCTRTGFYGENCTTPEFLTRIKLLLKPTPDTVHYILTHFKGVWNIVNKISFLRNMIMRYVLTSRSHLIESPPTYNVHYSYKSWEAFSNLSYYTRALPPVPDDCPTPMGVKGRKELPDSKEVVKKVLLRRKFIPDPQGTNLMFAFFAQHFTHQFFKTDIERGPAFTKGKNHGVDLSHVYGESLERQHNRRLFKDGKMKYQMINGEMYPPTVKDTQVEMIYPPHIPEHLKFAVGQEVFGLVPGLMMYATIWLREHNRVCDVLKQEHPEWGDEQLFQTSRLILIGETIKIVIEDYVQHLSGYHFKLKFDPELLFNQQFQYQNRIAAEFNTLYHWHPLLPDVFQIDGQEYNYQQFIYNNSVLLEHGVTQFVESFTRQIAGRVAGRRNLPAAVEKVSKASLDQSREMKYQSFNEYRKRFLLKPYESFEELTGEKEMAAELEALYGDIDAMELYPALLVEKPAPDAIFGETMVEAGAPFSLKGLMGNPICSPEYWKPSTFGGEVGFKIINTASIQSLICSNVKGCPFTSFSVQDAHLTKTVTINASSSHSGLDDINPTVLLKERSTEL
Procedure: as §1

[3] = Pharmacokinetics after oral administration in rats; assay type: in vivo, Male Sprague Dawley rats; settings: rat
Procedure: The animals are housed, fed and cared for according to the Guidelines of the […] Council on Animal Care. Male Sprague Dawley rats (250-300 g) are fasted overnight prior to each PO blood level study. The rats are placed in the restrainer one at a time and the box firmly secured. Compounds are prepared as required, in a standard dosing volume of 500 μL/250 g, and administered orally by passing a 16 gauge, 3″ gavaging needle into the stomach. Rats are catheterized at the carotid at least one day before drug administration and flushed with 30% PVP (400 U/mL of heparin) to prevent clotting in the tip. 250 μL blood samples are collected by unhooking the flush syringe and letting the blood flow freely in centrifuge tube at predetermined time points. The tubes should be centrifuged at 13,000 rpm for 10 min at 4° C. The plasma samples are collected in microcentrifuge tubes and stored immediately at −20° C. until analysis or analyzed immediately. Typical time points for determination of rat blood levels after PO dosing are: 30 min, 1 h, 3 h, 5 h, 7 h, 23 h, 25 h, 28 h, 31 h. A 100 μL aliquot of plasma sample is mixed with 150 μL of acetonitrile. After vortex and centrifuge, 200 μL of the supernatant is dried up under Speed Vac. The residue is reconstituted with 100 μL of methanol. After vortex and centrifuge again, 25 μL of supernatant is analyzed by C-18 HPLC column using UV detector. Quantitation is done relative to a clean blood sample spiked with a known quantity of drug.

[4] = tested on: adjuvant-induced arthritis in rats; test: Adjuvant-induced arthritis rat model, inhibition of paw swelling; assay type: in vivo, Male Lewis rats; settings: oral, daily, days 8-15; paw volume day 15

| Molecule | COX-1 10 nM (% inhibition) [1] [%] | COX-1 50 nM (% inhibition) [1] [%] | pIC50 [1] | COX-2 10 nM (% inhibition) [2] [%] | COX-2 50 nM (% inhibition) [2] [%] | Selectivity [2] | pIC50 [2] | half-life compared with Celecoxib (in words) [3] | inhibition at 0.01 µM [1] [%] | inhibition at 0.05 µM [1] [%] | inhibition at 0.01 µM [2] [%] | inhibition at 0.05 µM [2] [%] | selectivity for the inhibition of COX-2 over COX-1 (in words) [2] | pharmacology (pharmacokinetic) profile (in words) [3] | potency in controlling inflammation (in words) [4] |
| --- | --- | --- | --- | --- | --- | --- | --- | --- | --- | --- | --- | --- | --- | --- | --- |
| N=C(Nc1ccc(S(N)(=O)=O)cc1)c1nnc(-c2ccccc2)s1 [Example 32, N-[4-(Aminosulfonyl)phenyl]-3-[2-(phenyl)-1,3,4-thiadiazol-5-yl]carboximidamide] | 15 | 45 | 7.10 | 85 | 94 | 17 | 8.32 | longer half-life |  |  |  |  |  |  |  |
| CS(=O)(=O)c1ccc(-n2cc(C(F)(F)F)nc2-c2nnc(-c3ccccc3)s2)cc1 [Example 44, 1-[4-(Methylsulfonyl)phenyl]-2-(2-phenyl-1,3,4-thiadiazol-5-yl)-4-(trifluoromethyl)-1H-imidazole] |  |  | 7.57 |  |  | 12 | 8.64 |  | 30 | 45 | 95 | 100 |  |  |  |
| NS(=O)(=O)c1ccc(-n2cc(C(F)(F)F)nc2-c2nnc(-c3ccccc3)s2)cc1 [Example 48, 1-[4-(Aminosulfonyl)phenyl]-2-[2-(phenyl)-1,3,4-thiadiazol-5-yl]-4-(trifluoromethyl)-1H-imidazole] |  |  | 7.44 |  |  | 90 | 9.40 | longer half-life | 10 | 25 | 84 | 100 | good selectivity | excellent pharmacology profile | good potency in controlling inflamation |
| N-[4-(Aminosulfonyl)phenyl]-3-[2-(4-fluorophenyl)-1,3,4-thiadiazol-5-yl]carboximidamide [Example 33] | 23 | 52 | 7.44 | 84 | 100 | 11 | 8.48 | longer half-life |  |  |  |  |  |  |  |

Further lines, with some results ahead:

| COX-1 10 nM (% inhibition) [1] [%] | COX-1 50 nM (% inhibition) [1] [%] | pIC50 [1] | COX-2 10 nM (% inhibition) [2] [%] | COX-2 50 nM (% inhibition) [2] [%] | Selectivity [2] | pIC50 [2] | half-life compared with Celecoxib (in words) [3] | inhibition at 0.01 µM [1] [%] | inhibition at 0.05 µM [1] [%] | inhibition at 0.01 µM [2] [%] | inhibition at 0.05 µM [2] [%] | selectivity for the inhibition of COX-2 over COX-1 (in words) [2] | pharmacology (pharmacokinetic) profile (in words) [3] | Molecule | potency in controlling inflammation (in words) [4] |
| --- | --- | --- | --- | --- | --- | --- | --- | --- | --- | --- | --- | --- | --- | --- | --- |
| 31 |  | 7.21 | 98 |  | 12 | 8.29 |  |  |  |  |  |  |  | CS(=O)(=O)c1ccc(-n2cc(C(F)(F)F)nc2-c2nnc(Nc3ccccc3)s2)cc1 [Example 52, 1-[4-(Methylsulfonyl)phenyl]-2-[2-(N-anilino)-1,3,4-thiadiazol-5-yl]-4-(trifluoromethyl)-1H-imidazole] |  |
|  |  |  |  |  |  |  |  | 2 |  |  |  |  |  | Cc1onc(-c2ccccc2)c1-c1ccc(S(N)(=O)=O)cc1 [Valdecoxib, reference compound] |  |
